One assay concerns the target T1, H3.3-FKBP12^F36V (Homo sapiens, UniProt P62942+Q09472, F37V).
T1 construct: expressed in transfected cells
Put plainly: Quantitative proteomic (TMT MS) analysis of H3.3 acetylation. It is filed as cell-based. To be noted: 625 nM AceTAG-1 vs DMSO, FIG. 5A. On the procedure: Sample preparation: Cells were split in 10 cm dishes in indicated media. The probes were added once the cells grew to 60%-70% confluency and incubated for indicated time. The cells were harvested and washed with cold DPBS twice. The pelleted cells were lysed in 1 mL lysis buffer, containing 10 mM Tris pH 7.5, 300 mM NaCl, 0.1% (v/v) NP40, 5 mM sodium butyrate, 20 mM Nicotinamide, and 1X Halt Protease Inhibitor, followed by centrifuging for 5 min at 1,000 g at 4° C. The pellets were resuspended in benzonase buffer, containing 50 mM Tris pH 7.5, 300 mM NaCl, 0.5% NP40, and 2.5 mM MgCl2. Protein concentration was normalized by DC Protein Assay (Bio-Rad) and equal amount of protein was subjected to 50 U/100 ml benzonase nuclease (Millipore Sigma) treatment.
Samples with benzonase were incubated on ice for 30 min and centrifuged at 300 g for 3 min at 4° C. to obtain soluble chromatin fraction. Samples were diluted with dilution buffer, containing 50 mM Tris pH 7.5, 300 mM NaCl, 0.5% NP40, and 15 mM EDTA to quench the benzonase activity. Protein concentration was normalized again by DC Protein Assay (Bio-Rad) and equal amount of protein was used for HA-tag protein enrichment as described above. The beads were washed with lysis buffer and DPBS and incubated with 8 M urea and boiled in 4X SDS gel loading buffer at 95° C. for 15 min. […]

A further assay concerns TP53 target genes. In words: RNA-seq analysis of H1299 wt cells. The assay is classed as cell-based, Human. To be noted: 3 μM AceTAG-1, FIG. 7F.
The target of another assay is T2, p300 (Homo sapiens, UniProt Q09472).
T2 construct: expressed in transfected cells; host or cells: HEK293T (transient)
In words: In-situ photocrosslinking with p300-p probe and competition by AceTAG-1 in HEK293T cells. It is filed as cell-based. The conditions noted are these: increasing concentrations of AceTAG-1, 30 min, FIG. 3F. On the procedure: In-situ photocrosslinking with p300-BRD photocrosslinking probe and competition by AceTAG-1: At 50%-70% confluency, HEK293t cells in 6-well plates were transfected with pSG5-HA-p300. After 24 h, cells were co-treated for 30 min with […] p300-p probe and increasing concentration of AceTAG-1 in serum-free media. Cells then underwent UV-photocrosslinking (365 nm) for 20 min at 4° C. and harvested in cold DPBS by scraping and centrifugation. Cell pellets were washed with cold DPBS two times and aspirated. Cells were then lysed in 200 μL DPBS buffer supplemented with 1X Halt protease inhibitor cocktail. Lysate was fractionated by ultracentrifuge (100000 g, 45 min, 4° C.) to provide soluble fraction (supernatant) and membrane fraction (pellets). Soluble fraction was normalized to 2 mg/mL, underwent click reaction with Rhodamine-azide as previously described. Proteins (25 μg total protein loaded per gel lane) were resolved using SDS-PAGE (6% acrylamide). In-gel fluorescence visualization and immunoblot analysis was carried out as previously described.

Assay [1] relates to p21 (CDKNIA), PUMA, MDM2, and GLS2. Put plainly: Immunoblot of p53 target gene expression in FKBP12^F36V-p53 H1299 cells. It is filed as cell-based, Human. On the procedure: Immunoblotting: Cells were harvested in cold DPBS by scraping and washed with cold DPBS twice. Cell pellets were resuspended in DPBS supplemented with 5 mM sodium butyrate, 20 mM Nicotinamide, and 1X Halt Protease Inhibitor Cocktail and lysed by sonication (15 ms on, 40 ms off, 15% amplitude, 1s total on x 3). Protein concentration was determined using DC Protein Assay (Bio-Rad) and absorbance read using a CLARIOstar plate reader following manufacturer's instructions. Samples with equal protein content were boiled in 4X SDS gel loading buffer for 10 min. Proteins were separated by 10%, 12.5%, or 15% SDS-polyacrylamide gel electrophoresis and transferred to PVDF membranes using Trans-Blot Turbo RTA Mini […] LF PVDF Transfer Kit (Bio-Rad). Membranes were incubated for 1 h at room temperature with blocking buffer, followed by incubating overnight at 4° C. with primary antibodies. After washing in TBST, the secondary antibodies were incubated with the membranes at room temperature for 1 h. The membranes were washed with TBST for three times and visualized on a Bio-Rad ChemiDoc MP Imaging System with Clarity Max Western ECL substrate (Bio-Rad) or SuperSignal West Femto Chemiluminescent substrate proprietary luminol and peroxide solution kit (Thermo Scientific Pierce).
Background: Immunoblotting shows a protein as a band on a membrane.

T1 sequence (P62942 2-108 F37V limits assumed): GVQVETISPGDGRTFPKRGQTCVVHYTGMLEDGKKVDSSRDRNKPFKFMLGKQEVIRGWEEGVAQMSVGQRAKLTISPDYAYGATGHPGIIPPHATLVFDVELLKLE
T1 sequence (Q09472 2-2414 limits assumed, stated change not applied): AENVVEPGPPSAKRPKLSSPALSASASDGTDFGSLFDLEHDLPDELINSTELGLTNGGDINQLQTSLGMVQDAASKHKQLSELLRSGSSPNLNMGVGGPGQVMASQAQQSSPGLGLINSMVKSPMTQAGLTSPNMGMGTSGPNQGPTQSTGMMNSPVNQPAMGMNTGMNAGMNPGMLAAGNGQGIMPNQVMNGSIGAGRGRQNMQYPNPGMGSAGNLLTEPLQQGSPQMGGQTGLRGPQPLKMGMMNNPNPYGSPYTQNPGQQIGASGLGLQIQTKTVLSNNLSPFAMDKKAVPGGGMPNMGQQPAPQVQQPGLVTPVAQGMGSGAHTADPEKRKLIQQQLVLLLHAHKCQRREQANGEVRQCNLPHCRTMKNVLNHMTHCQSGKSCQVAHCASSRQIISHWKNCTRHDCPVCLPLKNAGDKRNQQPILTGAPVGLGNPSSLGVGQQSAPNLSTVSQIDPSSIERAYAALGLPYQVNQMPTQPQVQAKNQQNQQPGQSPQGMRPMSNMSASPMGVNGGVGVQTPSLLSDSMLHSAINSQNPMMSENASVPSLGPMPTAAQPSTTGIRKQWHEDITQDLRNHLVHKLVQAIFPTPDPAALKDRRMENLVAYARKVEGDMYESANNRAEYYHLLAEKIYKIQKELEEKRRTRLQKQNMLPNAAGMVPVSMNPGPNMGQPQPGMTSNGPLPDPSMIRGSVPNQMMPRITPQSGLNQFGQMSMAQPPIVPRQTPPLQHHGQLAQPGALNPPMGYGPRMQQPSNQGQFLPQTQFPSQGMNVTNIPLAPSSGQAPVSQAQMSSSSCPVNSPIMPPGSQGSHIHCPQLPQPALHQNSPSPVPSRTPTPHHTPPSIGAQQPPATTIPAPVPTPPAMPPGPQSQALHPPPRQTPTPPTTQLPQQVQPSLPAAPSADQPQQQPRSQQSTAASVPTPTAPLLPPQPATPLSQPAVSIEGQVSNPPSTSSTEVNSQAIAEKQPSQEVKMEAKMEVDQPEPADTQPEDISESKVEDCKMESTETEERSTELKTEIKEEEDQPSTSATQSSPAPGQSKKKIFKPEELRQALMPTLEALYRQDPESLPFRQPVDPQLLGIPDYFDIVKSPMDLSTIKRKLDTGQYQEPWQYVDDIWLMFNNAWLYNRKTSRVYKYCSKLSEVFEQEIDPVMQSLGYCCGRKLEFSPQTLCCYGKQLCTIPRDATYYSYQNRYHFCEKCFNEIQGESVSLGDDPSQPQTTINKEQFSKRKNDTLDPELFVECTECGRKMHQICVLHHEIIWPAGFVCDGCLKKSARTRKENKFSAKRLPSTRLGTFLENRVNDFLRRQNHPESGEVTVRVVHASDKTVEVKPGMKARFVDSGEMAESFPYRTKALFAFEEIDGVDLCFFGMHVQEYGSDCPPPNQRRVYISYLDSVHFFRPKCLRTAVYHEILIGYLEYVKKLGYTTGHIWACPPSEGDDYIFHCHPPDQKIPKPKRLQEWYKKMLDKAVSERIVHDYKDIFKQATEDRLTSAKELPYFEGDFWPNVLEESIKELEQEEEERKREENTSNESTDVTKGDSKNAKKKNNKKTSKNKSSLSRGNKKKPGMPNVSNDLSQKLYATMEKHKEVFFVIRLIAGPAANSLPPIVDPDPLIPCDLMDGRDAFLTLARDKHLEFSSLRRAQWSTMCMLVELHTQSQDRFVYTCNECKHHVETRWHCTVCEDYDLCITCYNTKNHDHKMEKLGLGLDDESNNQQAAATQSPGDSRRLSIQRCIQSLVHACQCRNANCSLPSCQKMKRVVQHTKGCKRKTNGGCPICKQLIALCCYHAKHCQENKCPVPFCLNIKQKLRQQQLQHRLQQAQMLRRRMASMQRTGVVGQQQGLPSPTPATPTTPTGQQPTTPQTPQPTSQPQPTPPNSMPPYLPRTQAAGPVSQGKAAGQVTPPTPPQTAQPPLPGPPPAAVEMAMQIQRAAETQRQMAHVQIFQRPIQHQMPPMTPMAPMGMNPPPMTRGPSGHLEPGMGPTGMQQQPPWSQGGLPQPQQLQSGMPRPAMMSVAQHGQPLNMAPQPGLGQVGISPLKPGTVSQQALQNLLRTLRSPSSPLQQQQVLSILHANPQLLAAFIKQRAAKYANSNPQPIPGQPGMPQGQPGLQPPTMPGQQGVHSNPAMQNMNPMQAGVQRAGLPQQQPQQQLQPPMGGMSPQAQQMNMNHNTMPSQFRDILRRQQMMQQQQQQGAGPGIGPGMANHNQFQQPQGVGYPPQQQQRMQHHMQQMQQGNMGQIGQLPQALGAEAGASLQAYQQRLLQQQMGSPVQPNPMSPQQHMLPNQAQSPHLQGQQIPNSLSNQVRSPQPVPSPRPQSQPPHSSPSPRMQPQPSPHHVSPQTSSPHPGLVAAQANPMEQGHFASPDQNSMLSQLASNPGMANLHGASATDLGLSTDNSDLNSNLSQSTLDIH
T2 sequence (Q09472 whole entry, species assumed): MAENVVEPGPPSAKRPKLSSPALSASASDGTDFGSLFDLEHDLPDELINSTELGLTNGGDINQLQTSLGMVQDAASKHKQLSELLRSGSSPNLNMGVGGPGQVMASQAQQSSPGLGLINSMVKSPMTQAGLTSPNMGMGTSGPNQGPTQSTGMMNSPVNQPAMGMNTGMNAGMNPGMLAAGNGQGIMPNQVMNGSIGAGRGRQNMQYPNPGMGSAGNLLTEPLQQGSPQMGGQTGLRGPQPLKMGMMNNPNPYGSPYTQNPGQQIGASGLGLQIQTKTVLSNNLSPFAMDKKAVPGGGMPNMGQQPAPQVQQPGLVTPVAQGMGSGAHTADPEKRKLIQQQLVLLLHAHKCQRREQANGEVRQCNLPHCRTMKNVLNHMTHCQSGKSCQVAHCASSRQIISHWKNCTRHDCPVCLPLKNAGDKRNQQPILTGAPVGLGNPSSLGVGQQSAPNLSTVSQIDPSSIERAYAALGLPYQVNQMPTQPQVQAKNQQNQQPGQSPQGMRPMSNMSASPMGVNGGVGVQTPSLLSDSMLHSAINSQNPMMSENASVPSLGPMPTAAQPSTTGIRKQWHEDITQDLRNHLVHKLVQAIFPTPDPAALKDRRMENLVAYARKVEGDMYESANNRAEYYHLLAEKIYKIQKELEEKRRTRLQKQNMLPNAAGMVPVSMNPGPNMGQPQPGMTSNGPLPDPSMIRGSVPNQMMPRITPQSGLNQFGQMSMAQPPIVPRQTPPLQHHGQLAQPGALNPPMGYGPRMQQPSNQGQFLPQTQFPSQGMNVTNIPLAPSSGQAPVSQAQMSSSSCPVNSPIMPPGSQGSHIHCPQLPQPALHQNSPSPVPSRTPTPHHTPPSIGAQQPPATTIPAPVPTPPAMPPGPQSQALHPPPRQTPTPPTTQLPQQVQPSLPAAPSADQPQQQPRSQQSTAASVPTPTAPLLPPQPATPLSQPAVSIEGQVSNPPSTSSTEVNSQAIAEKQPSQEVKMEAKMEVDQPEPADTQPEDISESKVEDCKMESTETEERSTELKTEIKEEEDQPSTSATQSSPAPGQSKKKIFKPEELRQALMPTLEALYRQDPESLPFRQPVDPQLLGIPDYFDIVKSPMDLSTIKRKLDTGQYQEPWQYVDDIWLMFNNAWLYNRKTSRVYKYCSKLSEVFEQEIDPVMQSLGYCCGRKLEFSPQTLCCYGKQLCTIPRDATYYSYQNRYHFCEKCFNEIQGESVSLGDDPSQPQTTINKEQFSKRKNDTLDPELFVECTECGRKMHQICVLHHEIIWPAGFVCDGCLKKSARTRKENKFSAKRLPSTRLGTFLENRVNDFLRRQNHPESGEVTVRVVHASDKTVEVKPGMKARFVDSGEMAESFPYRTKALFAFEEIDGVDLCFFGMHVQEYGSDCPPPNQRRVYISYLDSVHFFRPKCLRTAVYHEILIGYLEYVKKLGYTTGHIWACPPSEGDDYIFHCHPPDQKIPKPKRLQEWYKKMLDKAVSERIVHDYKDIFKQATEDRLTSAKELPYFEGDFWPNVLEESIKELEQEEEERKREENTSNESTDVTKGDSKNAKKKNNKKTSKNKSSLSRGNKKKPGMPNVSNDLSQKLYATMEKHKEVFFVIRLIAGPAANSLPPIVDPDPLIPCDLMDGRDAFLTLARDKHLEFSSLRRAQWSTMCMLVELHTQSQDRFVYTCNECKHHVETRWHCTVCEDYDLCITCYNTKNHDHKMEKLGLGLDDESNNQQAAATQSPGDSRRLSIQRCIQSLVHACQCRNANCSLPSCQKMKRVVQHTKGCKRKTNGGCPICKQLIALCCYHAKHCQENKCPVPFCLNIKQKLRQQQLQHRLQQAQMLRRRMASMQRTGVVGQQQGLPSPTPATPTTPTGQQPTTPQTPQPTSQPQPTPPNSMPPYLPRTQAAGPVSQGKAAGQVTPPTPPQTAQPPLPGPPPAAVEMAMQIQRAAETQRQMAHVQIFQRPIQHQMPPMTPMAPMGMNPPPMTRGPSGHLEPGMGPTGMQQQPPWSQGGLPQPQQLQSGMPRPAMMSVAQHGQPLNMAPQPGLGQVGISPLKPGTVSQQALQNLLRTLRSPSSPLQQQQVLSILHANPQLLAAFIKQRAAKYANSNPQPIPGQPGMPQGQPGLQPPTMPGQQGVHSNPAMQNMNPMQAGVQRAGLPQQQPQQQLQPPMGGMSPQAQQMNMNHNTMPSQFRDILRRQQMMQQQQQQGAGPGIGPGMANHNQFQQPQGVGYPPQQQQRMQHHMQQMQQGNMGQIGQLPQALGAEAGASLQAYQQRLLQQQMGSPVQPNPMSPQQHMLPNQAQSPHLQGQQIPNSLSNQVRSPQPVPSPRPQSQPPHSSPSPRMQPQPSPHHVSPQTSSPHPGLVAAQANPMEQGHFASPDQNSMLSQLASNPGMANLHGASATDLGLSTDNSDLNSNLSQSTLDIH

As for `CC[C@H](C(=O)N1CCCC[C@H]1C(=O)O[C@H](CCc1ccc(OC)c(OC)c1)c1cccc(OCC(=O)NCCOCCOCCC(=O)NCCOc2ccc(CCc3nc4cc(-c5c(C)noc5C)ccc4n3CCN3CCOCC3)cc2)c1)c1cc(OC)c(OC)c(OC)c1` [AceTAG-1, (R)-3-(3,4-dimethoxyphenyl)-1-(3-((15-(4-(2-(5-(3,5-dimethylisoxazol-4-yl)-1-(2-morpholinoethyl)-1H-benzo[d]imidazol-2-yl)ethyl)phenoxy)-2,12-dioxo-6,9-dioxa-3,13-diazapentadecyl)oxy)phenyl)propyl (S)-1-((S)-2-(3,4,5-trimethoxyphenyl)butanoyl)piperidine-2-carboxylate], on H3.3-FKBP12^F36V, the “acetylation at K18, K23, and K27 by quantitative MS” value is “substantial increases”; the “acetylation at other identified lysines on H3.3 by quantitative MS” value is “no acetylation”. In the assay on TP53 target genes, the “changes of TP53 target genes in H1299 wt cells” value is “minimal changes”. Moreover, the “competition of p300-p probe binding to p300” value on p300 was “efficiently competed”. Moreover, the “p21 expression level at higher concentration” value in assay [1] (FIGS. 7A and 7B) was “reflected the ‘hook effect’”. Further, in assay [1] (indicated doses, 8 hr and 24 hr exposure, FIGS. 7A and 7B), the p21 expression entry is “strong dose-dependent expression”. For the same molecule, in assay [1] (indicated doses, FIG. 7A), the “expression of PUMA, MDM2, and GLS2” value is recorded as “insignificant effects”.

The values are drawn from patent US20240238426A1, “PROTEIN ACYLATION MODULATION BY HETEROBIFUNCTIONAL MOLECULES” (THE SCRIPPS RESEARCH INSTITUTE, priority 2021, published 2024).
